Read-outs that look alike come from different tables or passages of the source.

Data on 2 molecules can be found in PMC11513892, “Discovery of a Series of Macrocycles as Potent Inhibitors of Leishmania Infantum” (Journal of Medicinal Chemistry, 2024).

For series [1], the system named is P. falciparum blood stage 3D7 strain. Description: Growth of P. falciparum blood stage 3D7 strain (phenotypic). It counts as cell-based, Plasmodium falciparum. Conditions: Figure 2A. The source says:
(§1) We previously reported the synthesis of a series of macrocycles, including 1 (Figure 2A), designed to investigate how structural features influence molecular chameleonicity.[15],[21] Originating from the structural similarities between 1 and hymenocardine, we investigated 1 in screens for P. falciparum and four kinetoplastid parasites: T. b. brucei, T. b. rhodesiense, T. cruzi, and L. infantum. In the screens, we also included compounds 2 and 3 (Figure 2A), which were obtained from an intermediate late in the synthetic route to 1. Since very few validated protein targets relevant to clearance of parasites are known, phenotypic assays were used to investigate the antiparasitic activity for all five parasites. For malaria, the P. falciparum blood stage 3D7 strain was used to test the three compounds. For the two Trypanosoma brucei species, the reduction in trypomastigote growth in culture medium was determined after the addition of 1–3. For T. cruzi, the intracellular parasite growth in infected human fibroblasts (MRC-5 cell line) was assessed in the presence and absence of the three inhibitors. Similarly, the growth of L. infantum was assessed in infected primary mouse macrophages (PMMs) in the presence and absence of the inhibitors. […] The assays for T. cruzi and L. infantum are complex, i.e., they determine the degree of inhibition of parasitic replication in a mammalian cell line; this complexity may lead to a high variability for some compounds.
(§2) The growth of the P. falciparum blood stage 3D7 strain,[53] the two T. brucei species in axenic cultures,[54]T. cruzi in infected human fibroblasts (MRC-5 cell line),[55] and of L. infantum in infected primary mouse macrophages (PMMs)[56] was determined as previously reported in the presence and absence of inhibitors 1–12.

Series [2] is described as follows: Chromatographic Log D at pH 7.4. It counts as physicochemical. The following applies: 1-octanol/PBS pH 7.4, determined by chromatography, mean of two measurements. The protocol:
(§3) The kinetic solubility in phosphate buffered saline at pH 7.4, chromatographic Log D at pH 7.4, cell permeability across a MDCK-MDR1 cell monolayer at pH 7.4, and the clearance in mouse liver microsomes of 1–12 was determined at TCG Lifesciences.

Another series has as its system L. infantum. Description: Growth of L. infantum in infected primary mouse macrophages (PMMs), phenotypic assay. The series is classed as cell-based, Leishmania infantum. The following applies: Leishmania infantum, Macrophage.
Description: as §1
(§4) The potency of macrocycles 1–12 to inhibit the growth of L. infantum was determined in a phenotypic assay in which the parasite was grown in primary peritoneal mouse macrophages (PMMs). To understand whether the SAR for inhibition of parasitic growth is impacted by low cell permeability, the permeability of compounds 1–12 was determined separately. Madin-Darby canine kidney (MDCK) cells transfected with the human MDR1 (multidrug resistance 1) gene (MDCK-MDR1 cells) were used to determine permeabilities in the apical to basolateral direction (Papp AB) as well as efflux ratios (ERs). […] Lipophilicity (Log D at pH 7.4), aqueous kinetic solubility and mouse liver microsomal metabolism were also determined for 1–12, and are discussed separately (cf. physiochemical properties and ADMET, below).
as §2

A further series deals with Leishmania donovani. Description: Activity against Leishmania donovani. It counts as cell-based.
For another series, the system named is MRC-5 cells. Description: Host cell cytotoxicity in MRC-5 cells. The following applies: CSV supplement; decimal comma. The series is classed as cell-based, human.
The next series concerns MDR1. Put plainly: in vitro. It counts as in vitro ADME, canine. Conditions: dog; for Papp B→A: MDCK-MDR1, pH 7.4; for Papp A→B: MDCK-MDR1, pH 7.4, Papp AB. As to the method:
as §4, §3

Series [3] has as its system primary mouse macrophages (PMMs). Description: Host cell cytotoxicity in primary mouse macrophages (PMM). The series is classed as cell-based. Conditions: CSV supplement; decimal comma.
Series [4] in a line: Clearance in mouse liver microsomes. It counts as in vitro ADME. Conditions: for microsomal CLint: mouse, liver microsomes. The protocol:
as §3
For orientation: Liver microsomes are vesicles of endoplasmic reticulum, rich in cytochrome P450 enzymes.

Series [5] in a line: Kinetic solubility in phosphate buffered saline at pH 7.4. The series is classed as physicochemical. The following applies: phosphate buffered saline. The protocol: as §3
A further series concerns T. b. rhodesiense. Description: Growth of T. b. rhodesiense trypomastigotes in axenic culture. The series is classed as cell-based, Trypanosoma brucei rhodesiense. The following applies: Trypanosoma brucei, RHODESIENSE / STIB900; CSV supplement; decimal comma; read-out: EC50 T.b. rhodesiense STIB 900.
Description: as §1, §2

A short description of series [6]: Clearance in human microsomes. The series is classed as in vitro ADME. The following applies: CSV supplement. The source says: Supplement jm4c01370_si_002.csv, table | column: CLint in vitro Human Microsomes µL/min/mg; t(1/2) min
In another series the test system is T. cruzi. Description: Intracellular growth of T. cruzi in infected human fibroblasts (MRC-5 cell line). It counts as cell-based. Conditions: Trypanosoma cruzi.
Description: as §1, §2

A short description of series [7]: Metabolite identification after incubation with rat liver microsomes. The series is classed as in vitro ADME. Conditions: Figure S3: rat liver microsomes, samples at 5, 10, 20, 30 and 60 minutes. As to the method: page 4: Figure S2. Endo and exo conformations for compound 5, obtained using the Monte Carlo-QM protocol for conformational sampling. Minimum energy conformations (MECs) and all conformations within 5 kcal/mol of the MECs are shown. Figure S3. Metabolically labile sites (indicated by red circles) observed for compound 3 after incubation with rat liver microsomes. Samples were collected at 5, 10, 20, 30 and 60 minutes. […]

The next series concerns T. b. brucei. Put plainly: Growth of T. b. brucei trypomastigotes in axenic culture. It counts as cell-based. The following applies: Trypanosoma brucei.
Description: as §1, §2

A further series concerns MDCK-MDR1 cells. Description: in vitro. It counts as in vitro ADME, canine. The following applies: dog, MDCK-MDR1, pH 7.4. As to the method:
as §4, §3

Where [8] appears, read: Table 1, mean (standard deviation, number of measurements), read-out: EC50 (μM), inhibition of the growth of L. infantum.
Setting [9] is: MDCK-MDR1, pH 7.4, ER, efflux ratio (BA/AB).
[10] abbreviates: MDCK-MDR1, pH 7.4, MDCK MDR1 - pH 7.4 Efflux Ratio.
Setting [11] is: CSV supplement, read-out: CLint in vitro Mouse Microsomes.
[12] abbreviates: incubation with mouse liver microsomes, read-out: CLint.
Where [13] appears, read: pH 7.4, CSV supplement, read-out: Kinetic solubility.
Setting [14] is: pH 7.4, phosphate buffered saline pH 7.4, assay range 2.5–200 μM, read-out: solubility (kinetic).
[15] abbreviates: TULAHUEN, MRC5, read-out: EC50 T. cruzi Tulahuen C4 (LacZ).
The mark [16] stands for this setting: CSV supplement, decimal comma, read-out: EC50 T.b. brucei Squib 427.
The mark [17] stands for this setting: Table S1, mean (SD), 2 to 14 measurements, unit not given in Table S1, read-out: In vitro potency, T. b. brucei.

With `CC(C)(C)OC(=O)N[C@H]1Cc2ccc(cc2)Oc2ccc(cc2NC(=O)c2ccccn2)C(=O)CNC(=O)[C@H](Cc2ccccc2)NC1=O` [Compound 3, tert-Butyl ((8S,11S)-8-Benzyl-4,7,10-trioxo-3^2-(picolinamido)-2-oxa-6,9-diaza-1,3(1,4)-dibenzenacyclododecaphane-11-yl)carbamate], the “potency as inhibitor of P. falciparum (in words)” value in [1] is listed as “moderately potent”. The EC50 is 3 µM in [1] (Plasmodium falciparum, 3D7, mean (SD) from 2 to 14 measurements); less than 2 µM with L. infantum (Figure 2, mean (SD), miltefosine from 19 measurements, read-out: EC50 L. infantum); 1.8 µM with L. infantum (setting [8]); 1.04 ± 0.25 µM with Leishmania donovani; 9.1 µM in the series with T. b. rhodesiense; 10 to 30 µM in the series on T. cruzi (MRC5, Figure 2A, mean (SD) from 2 to 14 measurements, read-out: EC50 T. cruzi). Further, the EC50 was found to be 20 µM with T. cruzi (setting [15]), 15.1 µM in the series with T. b. brucei (setting [16]) and 15 µM in the series with T. b. brucei (setting [17]). The same molecule displayed a chromatographic logD in series [2] of 4.9. Besides, the “MRC-5 cells Human Lung Fibroblast Cells (cytotoxicity)” value in the series on MRC-5 cells was 57,6 µM. The molecule also had a Papp B→A in the series on MDR1 of 22.2 ×10⁻⁶ cm/s. Besides, the efflux ratio with MDR1 (setting [9]) and in the series with MDR1 (setting [10]) was 6.4 in each case. Besides, the Papp A→B in the series with MDR1 came to 3.5 ×10⁻⁶ cm/s. For the same molecule, in series [3], the “PMM Primary Mouse Macrophages (inf-LMPH) (cytotoxicity)” value was more than 64 µM. In addition, in series [4] (CSV supplement), the “t(1/2), Mouse Microsomes” value was less than 3 min. The microsomal CLint in [4] (setting [11]) is more than 578 µL/min/mg; in series [4] (setting [12]), more than 580 µL/min/mg; in [6] (human, microsomes, read-out: CLint in vitro Human Microsomes) it was more than 578 µL/min/mg. Besides, the figures for the kinetic solubility in [5] (setting [13]) and in series [5] (setting [14]) were 1 µg/mL and less than 2.5 µM, respectively. For the same molecule, in series [6], the “t(1/2), Human Microsomes” value is listed as less than 3 min. Besides, the “metabolite identification, sites of metabolism” value in [7] is “oxidative metabolism occurring at the P2 and P3 positions, and at the α-carbon atom of the tyrosine moiety in the macrocyclic ring”.
`CC(C)(C)OC(=O)N[C@H]1Cc2ccc(cc2)Oc2ccc(cc2NC(=O)c2ccccn2)CCNC(=O)[C@H](Cc2ccccc2)NC1=O` [Compound 6, tert-Butyl ((8S,11S)-8-Benzyl-7,10-dioxo-3^2-(picolinamido)-2-oxa-6,9-diaza-1,3(1,4)-dibenzenacyclododecaphane-11-yl)carbamate] yielded a chromatographic logD in series [2] of 5.1. The EC50 in the series with L. infantum (CSV supplement, decimal comma, read-out: EC50 L. infantum MHOM/MA(BE)/67) is 12.3 µM; with L. infantum (setting [8]), 12 µM; in the series with T. b. rhodesiense, 6.3 µM; in the series with T. cruzi (MRC5, Table S1, mean (SD), 2 to 14 measurements, unit not given in Table S1, read-out: In vitro potency, T. cruzi), 19 µM; with T. cruzi (setting [15]), 18.8 µM; in the series with T. b. brucei (setting [16]), 11.8 µM. Also, in the series on T. b. brucei (setting [17]), the EC50 is 12 µM. Also, the “MRC-5 cells Human Lung Fibroblast Cells (cytotoxicity)” value with MRC-5 cells is reported as 45,8 µM. For the same molecule, in the series with MDR1, the basolateral-to-apical permeability (Papp B→A) is 79.9 ×10⁻⁶ cm/s. In addition, the efflux ratio in the series on MDR1 (setting [9]) and in the series with MDR1 (setting [10]) was 8.4 each time. In the series with MDR1, this molecule gave a Papp A→B of more than 5 ×10⁻⁶ cm/s. For the same molecule, the “Papp AB” value with MDCK-MDR1 cells is listed as 9.5 ×10^–6 cm/s. Besides, in series [3], the “PMM Primary Mouse Macrophages (inf-LMPH) (cytotoxicity)” value is 16,0 µM. In addition, the “t(1/2), Mouse Microsomes” value in [4] (CSV supplement) is recorded as less than 3 min. Moreover, the microsomal CLint is more than 578 µL/min/mg in series [4] (setting [11]) and more than 580 µL/min/mg in series [4] (setting [12]). The solubility (kinetic) in series [5] (setting [13]) was determined as 3.8 µg/mL; in series [5] (setting [14]) it was 5.9 µM.

A word on the chromatographic logD: it is lipophilicity estimated from chromatographic retention. Read a high chromatographic logD as higher lipophilicity. In general, Papp B→A refers to the apparent permeability from the basolateral to the apical side of a cell layer. What is called efflux ratio is the permeability from basolateral to apical divided by that in the opposite direction, in the common usage. A word on the Papp A→B: it is how fast a substance crosses the layer from the apical side. High values mean ready permeation, low ones poor permeation. As usually defined, the kinetic solubility is solubility judged after dilution from a stock solution rather than from solid.
